Assay results taken from article PMC10343781, “Effect of Linker Elongation on the VGSC Affinity and Anticonvulsant Activity among 4-Alkyl-5-aryl-1,2,4-triazole-3-thione Derivatives” (Molecules, 2023).
Where two headings read alike, the source gives them in different places.

Assays:
[1] = target: Na+ channel (site 2), batrachotoxin-binding sites of VGSCs; settings: cited from earlier work
[2] = test system: maximal electroshock-induced tonic-clonic seizures in mice; assay: Maximal electroshock-induced seizure (MES) test; format: in vivo; settings: Mus musculus, ip, read-out: ED50 ± SEM, anticonvulsant activity (MES test)
Protocol: As the sodium channel ligands are recognized as antiepileptic agents and the affinity of 3 and 4 against VGSCs was still in the beneficial range, the investigated 1,2,4-triazole derivatives were examined for their antiepileptic potential using in the vivo model of tonic–clonic seizures in mice. The protective effect of compounds 3 and 4 against maximal electroshock-induced seizures (MES) was evaluated in a wide range of doses (producing 0% to 100% protection) that enabled us to calculate corresponding ED50 values.
Anticonvulsant activity of the investigated compounds was determined according to the same procedure as described in [11, 15, 18]. Adult albino mice weighing 20–25 g were used in the experiment. The animals were randomly divided into groups of 8 mice and kept in colony cages with free access to water and food. Test compounds were administered intraperitoneally, suspended in a 1% solution of Tween 80 in distilled water in a volume of 5 mL/kg. Electroconvulsions were produced with alternating current (0.2 s stimulus duration; 500 V, 50 Hz, 25 mA constant current) delivered through ear clip electrodes by a type 221 rodent shock generator (Hugo Sachs Elektronik, Freiburg, Germany). Absence of tonic extension of the hind limb was assumed as the criterion of anticonvulsant activity. ED50 values were calculated using Litchfield and Wilcoxon’s log-probit method.

[3] = target: Na+ channel (site 2), batrachotoxin-binding sites of VGSCs; settings: [3H]batrachotoxin displacement, rat cerebral cortex membranes, 8 concentrations 0.1-300 µM; read-out: Na+ Channel (Site 2) Affinity IC50 ± SEM
[4] = test system: motor coordination of mice; assay: Rotarod test (acute neurotoxicity); settings: i.p.
Protocol: Additionally, their possible acute neurotoxic effects were evaluated in the rotarod test.
Acute neurotoxicity of the compounds obtained after i.p. administration was tested in mice using the rotarod test according to the methodology described earlier [37].

[5] = test system: maximal electroshock-induced tonic-clonic seizures in mice; set-up: method as in PMID 30594731; settings: cited from earlier work

Row | SMILES | melting point [°C] | ED50 ([2]; pretreatment time 15 min) [mg/kg] | ED50 ([2]; pretreatment time 30 min) [mg/kg] | ED50 ([2]; pretreatment time 60 min) [mg/kg] | ED50 ([2]; pretreatment time 120 min) [mg/kg] | IC50 [3] [µM] | PI (TD50/ED50) ([4]; pretreatment time 15 min) | PI (TD50/ED50) ([4]; pretreatment time 30 min) | PI (TD50/ED50) ([4]; pretreatment time 60 min) | PI (TD50/ED50) ([4]; pretreatment time 120 min) | also measured
1 | CCCCn1c(Cc2cccc(Cl)c2)n[nH]c1=S [Compound 1] | – | – | – | – | – | – | – | – | – | – | IC50 ([1]; Figure 1, methylene-linker 3-chlorophenyl analogs, read-out: IC50 (VGSC affinity)): 15.8 µM
2 | CCCCCCn1c(Cc2cccc(Cl)c2)n[nH]c1=S [Compound 2, 5-(3-chlorobenzyl)-4-hexyl-1,2,4-triazole-3-thione] | – | – | – | – | – | – | – | – | – | – | IC50 ([1]; read-out: IC50 (blocked the VGSCs)): 6.17 µM
3 | CCCCn1c(CCc2cccc(Cl)c2)n[nH]c1=S [Compound 3, 4-Butyl-5-[2-(3-chlorophenyl)ethyl]-2,4-dihydro-3H-1,2,4-triazole-3-thione] | 102 to 104 | 139 ± 31.4 | 96.6 ± 14.8 | 148 ± 17.1 | 195 ± 18.9 | 11.9 ± 0.4 | 2.4 | 3.4 | 2.3 | 1.7 | –
4 | CCCCCCn1c(CCc2cccc(Cl)c2)n[nH]c1=S [Compound 4, 5-[2-(3-Chlorophenyl)ethyl]-4-hexyl-2,4-dihydro-3H-1,2,4-triazole-3-thione] | 84 to 86 | 115 ± 7.6 | 129 ± 21.1 | 215 ± 21.1 | 255 ± 22.5 | 18.9 ± 0.3 | 6.2 | 5.3 | 3.2 | 1.9 | median toxic doses (TD50) in the rotarod test ([4]; pretreatment time not stated, highest value of the series): ≤ 710.5 mg/kg
5 | CCCC(CCC)C(=O)O [Valproate] | – | – | – | – | – | – | – | – | – | – | ED50 ± SEM, anticonvulsant activity (MES test) ([5]; pretreatment time 15 min): 189.0 ± 17.3 mg/kg; ED50 ± SEM, anticonvulsant activity (MES test) ([5]; pretreatment time 30 min): 216.9 ± 9.4 mg/kg; ED50 ± SEM, anticonvulsant activity (MES test) ([5]; pretreatment time 60 min): 218.4 ± 18.9 mg/kg; ED50 ± SEM, anticonvulsant activity (MES test) ([5]; pretreatment time 120 min): 246.6 ± 21.4 mg/kg
6 | COc1ccc(C(=O)O[C@H]2CC[C@@]3(C)[C@@H]4CC[C@H]5[C@]6(O)C[C@H](O)[C@@]7(O)[C@@H](CN8C[C@@H](C)CC[C@H]8[C@@]7(C)O)[C@]6(O)C[C@@]53O[C@]24O)cc1OC [Veratridine, reference compound] | – | – | – | – | – | 17.8 ± 0.9 | – | – | – | – | –
